Laboratory results: the RepoRT retention time repository (doi:10.1021/ac300829f)

Test: RP, Thermo Scientific Hypersil GOLD, 150 × 2.1 mm, 1.9 µm, 0.5 mL/min, estimated dead time 0.66 min; A: water + 0.1% formic acid, pH 3; B: acetonitrile + 0.1% formic acid, pH 3; gradient (min/%B) 0/0 2/0 13/100 15.5/100 19/0
Conditions: stereoisomer not certain

In order of falling LC retention time:
1. CCCCCCCCC=CCCCCCCCC(=O)OCC(O)COP(=O)([O-])OCC[N+](C)(C)C (stereo not drawn) [1-oleoylglycerophosphocholine LysoPC(18:1)]  12 min
2. CCCCCC=CCC=CCCCCCCCC(=O)OCC(O)COP(=O)([O-])OCC[N+](C)(C)C (stereo not drawn) [1-linoleoylglycerophosphocholine GPCho(18:2)]  11.2 min
3. CC(CCC(=O)O)C1CCC2C3C(O)CC4CC(O)CCC4(C)C3CC(O)C12C (stereo not drawn) [cholic acid]  9.2 min
4. CCCCCCCCCC(=O)OC(CC(=O)[O-])C[N+](C)(C)C (stereo not drawn) [decanoylcarnitine]  9 min
5. CC12CCC3C(CCC4CC(OC5OC(C(=O)O)C(O)C(O)C5O)CCC43C)C1CCC2=O (stereo not drawn) [androsterone glucuronide]  8.6 min
6. CCCCCCCCC(=O)OC(CC(=O)[O-])C[N+](C)(C)C (stereo not drawn) [nonanoylcarnitine]  8.1 min
7. CC12CCC(=O)C=C1CCC1C2CCC2(C)C(OC3OC(C(=O)O)C(O)C(O)C3O)CCC12 (stereo not drawn) [testosterone glucuronide]  7.9 min
8. O=C(O)CCCCCCCCC(=O)O [sebacic acid]  7.6 min
9. CCOC(=O)c1ccccc1C(=O)O [monoethyl phthalate]  7.6 min
10. CCCCCC=CC(=O)OC(CC(=O)[O-])C[N+](C)(C)C (stereo not drawn) [octenoylcarnitine]  7.3 min
11. O=C(O)CNC(=O)C=Cc1ccccc1 [cinnamoylglycine]  7 min
12. CCC(CCCCCC(=O)O)C(=O)O (stereo not drawn) [2-ethylsuberic acid]  6.7 min
13. Cc1ccc(C(=O)NCC(=O)O)cc1 [4-methylhippuric acid (para-methylhippuric acid)]  6.7 min
14. CCCCCC(=O)OC(CC(=O)[O-])C[N+](C)(C)C (stereo not drawn) [hexanoylcarnitine]  6.6 min
15. CC(=O)NC(Cc1ccccc1)C(=O)O (stereo not drawn) [N-acetylphenylalanine]  6.6 min
16. O=C(O)CNC(=O)c1ccccc1O [o-hydroxyhippuric acid]  6.5 min
17. O=C(O)CNC(=O)C1=CCCCC1 [tetrahydrohippuric acid]  6.3 min
18. COC(=O)CCCCC(=O)O [mono-methyl-adipate]  6.3 min
19. O=C(OC1OC(C(=O)O)C(O)C(O)C1O)c1c[nH]c2ccccc12 (stereo not drawn) [3-indole carboxylic acid glucuronide]  6.3 min
20. NC(=O)CCC(NC(=O)Cc1c[nH]c2ccccc12)C(=O)O (stereo not drawn) [indoleacetyl glutamine]  6.1 min
21. CCCCCCCC(C(=O)O)C(=O)O [heptylmalonic acid]  6.1 min
22. O=C(O)CNC(=O)c1cccc(O)c1 [m-hydroxyhippuric acid]  6.1 min
23. CC(C)(CCC(=O)O)C(=O)O [2,2-dimethylglutaricacid]  6 min
24. CC(=O)NCCc1c[nH]c2ccc(O)cc12 [N-acetyl-5-hydroxytryptamine (N-acetyl-serotonin)]  5.8 min
25. O=C(O)CNC(=O)c1ccccc1 [hippuric acid]  5.8 min
26. Cc1cc2nc3c(=O)[nH]c(=O)nc-3n(CC(O)C(O)C(O)CO)c2cc1C (stereo not drawn) [riboflavin]  5.7 min
27. O=C(O)Cc1c[nH]c2ccc(O)cc12 [5-hydroxyindoleacetic acid]  5.7 min
28. Cc1cc2c(cc1C)N(CC(O)C(O)C(O)COP(=O)(O)O)c1[nH]c(=O)[nH]c(=O)c1N2 (stereo not drawn) [FMNH]  5.7 min
29. CC(C)CC(=O)C(=O)O [4-methyl-2-oxovaleric acid (ketoleucine)]  5.7 min
30. NCCc1c[nH]c2ccccc12 [tryptamine]  5.7 min
31. Cn1c(=O)c2c(ncn2C)n(C)c1=O [caffeine]  5.6 min
32. Cc1ncc(CO)c(C(=O)O)c1O [4-pyridoxic acid]  5.6 min
33. O=C(C=Cc1ccc(O)c(O)c1)OC1CC(O)(C(=O)O)CC(O)C1O (stereo not drawn) [chlorogenic acid]  5.5 min
34. C[N+](C)(C)CC(CC(=O)[O-])OC(=O)CCCCC(=O)O (stereo not drawn) [adipoylcarnitine]  5.3 min
35. O=C(O)c1cc(=O)c2cccc(O)c2[nH]1 [xanthurenic acid]  5.2 min
36. CC=C(C)C(=O)NCC(=O)O [tiglylglycine]  5.2 min
37. OCc1cccc(O)c1 [3-hydroxybenzyl alcohol]  5.1 min
38. Cn1c(=O)[nH]c2[nH]c(=O)n(C)c2c1=O [1,7-dimethyluric acid]  5 min
39. CCCC(=O)OC(CC(=O)[O-])C[N+](C)(C)C (stereo not drawn) [butyrylcarnitine]  5 min
40. CC(=O)Nc1ccc(O)cc1 [acetaminophen]  4.9 min
41. O=C(O)CNC(=O)c1ccc(O)cc1 [p-hydroxyhippuric acid]  4.9 min
42. O=C(O)CC(Nc1ncnc2c1ncn2C1OC(CO)C(O)C1O)C(=O)O (stereo not drawn) [succinyladenosine]  4.8 min
43. CN(C)c1nc2c(ncn2C2OC(CO)C(O)C2O)c(=O)[nH]1 (stereo not drawn) [N,N-dimethylguanosine]  4.8 min
44. Cn1c(=O)c2[nH]c(=O)[nH]c2n(C)c1=O [1,3-dimethyluric acid]  4.7 min
45. NCc1[nH]cc(CCC(=O)O)c1CC(=O)O [porphobilinogen]  4.7 min
46. CCC(C)(O)C(=O)O (stereo not drawn) [2-hydroxy-2-methylbutyric acid (2-hydroxyisovaleric acid)]  4.6 min
47. CC(=O)Nc1ccn(C2OC(CO)C(O)C2O)c(=O)n1 (stereo not drawn) [N4-acetylcytidine]  4.6 min
48. OCC1NCC(O)C(O)C1OC1OC(CO)C(O)C(O)C1O (stereo not drawn) [glucopyranosylmoranoline]  4.5 min
49. CNc1nc2c(ncn2C2OC(CO)C(O)C2O)c(=O)[nH]1 (stereo not drawn) [N2-methylguanosine]  4.4 min
50. NC(Cc1ccccc1)C(=O)O (stereo not drawn) [phenylalanine]  4.4 min
51. O=c1[nH]c(=O)c2ncn(C3OC(CO)C(O)C3O)c2[nH]1 (stereo not drawn) [xanthosine]  4.3 min
52. CC(C)(O)CC(=O)O [3-hydroxy-3-methylbutyric acid (3-hydroxyisovaleric acid)]  4.2 min
53. CC(=O)Nc1ccc(OC2OC(C(=O)O)C(O)C(O)C2O)cc1 (stereo not drawn) [acetaminophene glucuronide]  4.2 min
54. CC(C)C(=O)NCC(=O)O [N-isobutyrylglycine]  4.1 min
55. CCC(=O)OC(CC(=O)[O-])C[N+](C)(C)C (stereo not drawn) [propionylcarnitine]  3.6 min
56. CC(=O)NC(C)C(=O)O (stereo not drawn) [acetylalanine]  1.8 min
57. O=c1cc[nH]c(=O)[nH]1 [uracil]  1.2 min
58. Cc1ncc(C=O)c(CO)c1O [pyridoxal  isomer]  1.1 min
59. O=C(O)C1CCCN1 (stereo not drawn) [proline]  1.1 min
60. [NH3+]CC(=O)N1CCCC1C(=O)[O-] (stereo not drawn) [Gly-Pro]  1.1 min
61. CC(C)CC(N)C(=O)O (stereo not drawn) [leucine]  1.1 min
62. CN1CCCC1c1cccnc1 (stereo not drawn) [nicotine]  1.1 min
63. Nc1nc2nc[nH]c2c(=O)[nH]1 [guanine]  1.1 min
64. O=c1[nH]cnc2nc[nH]c12 [hypoxanthine]  1.1 min
65. CC(=O)NC(CC(=O)O)C(=O)O (stereo not drawn) [N-acetylaspartic acid]  1.1 min
66. NC(=O)c1cccnc1 [nicotinamide]  1.1 min
67. CC(=O)NCCCCN [N-acetylputrescine]  1.1 min
68. O=C(O)c1cccnc1 [nicotinic acid]  1.1 min
69. Nc1ccnc(=O)[nH]1 [cytosine]  1.1 min
70. NC(CCCC(=O)O)C(=O)O (stereo not drawn) [2-aminoadipic acid]  1.1 min
71. O=C1CCNC(=O)N1 [5,6-dihydrouracil]  1.1 min
72. CSCCC(N)C(=O)O (stereo not drawn) [methionine]  1.1 min
73. Nc1ccc(O)cc1 [4-aminophenol]  1.1 min
74. CSCC(O)C(O)C(O)C=O (stereo not drawn) [5-methylthioribose]  1.1 min
75. CC(=O)NCCC(=O)NC(Cc1cnc[nH]1)C(=O)O (stereo not drawn) [N-acetylcarnosine]  1.1 min
76. Nc1ncnc2c1ncn2C1OC(CO)C(O)C1O (stereo not drawn) [adenosine]  1.1 min
77. NC(Cc1ccc(O)cc1)C(=O)O (stereo not drawn) [tyrosine]  1.1 min
78. CN1C(=O)C(O)CC1c1cccnc1 (stereo not drawn) [trans-3-hydroxycotinine]  1.1 min
79. O=C(O)CC(=O)O [malonic acid]  1.04 min
80. C[N+]1(C)CCCC1C(=O)[O-] (stereo not drawn) [stachydrine (proline betaine)]  1 min
81. Cc1cnc(=O)[nH]c1N [5-methylcytosine]  1 min
82. [NH3+]CCCCCC(=O)[O-] [6-aminocaproic acid]  1 min
83. CN(CC(=O)O)C(=N)N [creatine]  1 min
84. CC(=O)NCCCNCCCCN [N1-acetylspermidine]  0.9 min
85. NCCS(=O)(=O)O [taurine]  0.9 min
86. CN1CC(=O)NC1=N [creatinine]  0.9 min
87. OCC1OC(O)C(O)C(O)C1O (stereo not drawn) [hexose]  0.9 min
88. NC(N)=NCCCC(N)C(=O)O (stereo not drawn) [arginine]  0.9 min
89. NC(=O)CCC(N)C(=O)O (stereo not drawn) [glutamine]  0.9 min
90. NC(N)=NCC(=O)O [guanidoacetic acid]  0.9 min
91. O=CCC(O)C(O)CO (stereo not drawn) [deoxyribose]  0.9 min
92. C[N+](C)(C)[O-] [trimethylamine oxide]  0.9 min
93. O=C(O)C(O)C(O)C(O)C(O)CO (stereo not drawn) [gluconic acid]  0.9 min
94. NC(CO)C(=O)O (stereo not drawn) [serine]  0.9 min
95. N[C@@H](Cc1c[nH]c2ccccc12)C(=O)O [L-tryptophan]  0.8 min
96. NC(Cc1cnc[nH]1)C(=O)O (stereo not drawn) [histidine]  0.8 min
97. NCCCCNCCCN [spermidine]  0.8 min
98. NCCc1cnc[nH]1 [histamine]  0.8 min
